Test results published in patent US9463338B2, “Derivatives of the sinapinic acid” (PHARMASYNTHESE, priority 2013, dated 2016).
Where “and” joins values, the source holds several entries; their conditions need not be identical. Equal values may be shown once. Marks after values point to notes of the source that are not given here.

Assays:
[1] = test system: explants of adipose tissues; assay: Slimming effect: glycerol released in culture medium of adipose tissue explants; type: cell-based, human
Procedure: The activity of the compounds of the invention on the adipocytes has been assessed. To do so, tests have been carried out on explants of adipose tissues that are kept alive according to the following experimental protocol. The products to be tested are introduced in the culture medium. After 9 days of treatment, the activity is assessed through an assay of the glycerol released in the culture medium. In order to be able to compare the potential activity of the molecules, caffeine (Sigma ref C-0750 batch 127F0396), which is known for its activity on the adipocytes (Studlar M. […] The explants are prepared from a tummy tuck ([…]-AB-40) carried out on a donor. 54 explants of tissues have been prepared and kept alive in a medium which is supplemented with penicillin/streptomycin antibiotics (Gibco ref 15140 batch 918578) at 37° C. and with 5% of CO2. The treatment has been carried out, on 3 explants, by incorporating 100 μl of the product (which is in turn at a 2% concentration in the adequate solvent, DMSO) in 2 ml of the culture medium on days J0, J2, J3, J5 and J7. Caffeine has been diluted to the desired concentration in the culture medium on these same days. The control explants have undergone no treatment. On J0, the 3 explants have been collected and frozen at -80° C. On J9, the remaining explants have been collected and preserved under the same conditions. The extraction of lipids from the culture medium has been carried out according to a tested procedure. The assay of the glycerol of the culture medium has been carried out using a glycerol assay kit (Megazyme, K-GROL) in the form of 96-well microplates and reading has been made at 340 nm with a Tecam Infinite M200 microplate reader associated to the Magellan software.

[2] = test system: normal human dermal fibroblasts; assay: Production of progerin in monolayer cultures of normal human dermal fibroblasts (ELISA); type: cell-based; conditions: for Progerin % DMSO / Progerin Average / Progerin, individual values / Progerin Difference (%): 96 hours; for Progerin Difference (%): vs DMSO
Source text: In order to study the influence of the compounds of the invention on the concentration of progerin in the cells, the assay method described by C. Verdy, J.-E. Branka and N. Mekideche in <<Quantitative assessment of lactate and progerine production in normal human cutaneous cells during normal ageing: effect of an alaria esculenta extract>>, Int. J. Cosmetic Science, 2011, 1-5, has been used.
(§1) The test system consists of monolayers of adult normal human dermal fibroblasts obtained by cultivating cells collected from a tummy tuck carried out on a person.
Insulin at 10 nM has been used as a reference product in this study. […]
(§2) The compound to be tested is solubilized in 1 mg/ml in DMSO, then diluted in the cells incubation medium, with a constant concentration of 0.1% (v/v) in DMSO.
Upon completion of the incubation period, on the one hand, the progerin has been quantified in the cellular lysates (obtained by ultrasonic action) through a sensitive and specific ELISA assay, and on the other hand, the proteins that are contained in the cellular lysates have been quantified by a spectrophotometric method (Bradford method—Bradford M. (1976) Anal. Biochem., 72, 248-254).
(§3) The statistical significance of the differences that have been observed between the <<Control>> and the <<reference product>> conditions, has been assessed through a Student test. The statistical significance of the differences that have been observed between the <<Check>> and the <<test products>> conditions, has been assessed through a one-way analysis of variance (One Way ANOVA) followed by a Holm-Sidak test (*:p<0.05).

[3] = test system: normal human dermal fibroblasts; assay: Production of type I pro-collagen in monolayer cultures of normal human dermal fibroblasts (E.I.A.); type: cell-based; conditions: 48 hours; for Procollagen Difference (%): vs DMSO
Procedure: as §1
The used reference activator is the Transforming Growth Factor β (TGF-β) at 1 ng/ml. […]
as §2
Upon completion of the incubation period, the type I pro-collagen contained in the fibroblasts incubation media has been quantified using a sensitive and specific E.I.A. kit.
Upon completion of the incubation period, the proteins contained in the cellular lysates have been quantified by a spectrophotometric method (Bradford method—Bradford M. (1976) Anal. Biochem., 72, 248-254).
as §3
The results are given in the form of μg of type I pro-collagen per mg of protein (average+/− the standard deviation, S.D.) and are reported in the following Table 5.

normal human melanocytes = assay: Melanin production of normal human melanocytes (conditioned fibroblast media); type: cell-based; conditions: for Melanin/Proteins, individual values: conditioned medium 1/10th on melanocytes 72 hours; for Melanin/Proteins % DMSO / Melanin/Proteins Average: conditioned fibroblast medium, melanocytes 72 hours; for Melanin/Proteins Difference (%): vs DMSO 0.01%
Source text: These experiments allowed to show the capability of the compounds of the invention to modulate the melanin production of normal human melanocytes cultivated in D.K.K. fibroblast monolayers.
Monolayers of normal human dermal fibroblasts have been obtained by cultivating cells collected from a tummy tuck carried out on a person. For carrying out the tests, these cells have been cultivated until obtaining confluent monolayers. Monolayers of normal human melanocytes have been obtained by cultivating cells collected from a tummy tuck carried out on a person. For carrying out the tests, these cells have been cultivated until obtaining non-confluent monolayers. […]
Afterwards, the melanocytes have been incubated for 72 hours at 37° C. in a humid atmosphere with 5% of CO2, in the absence (culture medium alone) or in the presence of kojic acid at 250 μM or of conditioned fibroblast media (see above) diluted to 1/10th in the culture medium of the melanocytes.
The active ingredient has been solubilized in DMSO (Dimethyl Sulfoxide). Afterwards, the dilutions have been carried out in the cells incubation medium with a constant concentration of 0.01% (v/v) of DMSO.
Upon completion of the incubation period, the intracellular melanin content has been quantified in the melanocytic lysates by a spectrophotometric measurement at 405 nm.
Upon completion of the incubation period, the proteins contained in the cellular lysates have been quantified by a spectrophotometric method (Bradford method).
The results are given in the form of μg of intracellular melanin per mg of total proteins of the cellular layer (averages+/− the standard deviation, S.D.).
The statistical significance of the differences observed between the <<Control>> and the <<test product>> conditions, has been assessed through a one-way analysis of variance (One Way ANOVA) followed by a Holm-Sidak test (*:p<0.05).

[4] = ORAC (Oxygen Radical Absorbance Capacity) antioxidant activity; type: biochemical; conditions: for antioxidant activity in comparison with trolox: ORAC
Source text: The ORAC (Oxygen Radical Absorbance Capacity) method, described in Cao, G., Alessio, H. M., Cutler, R. G. Free radical Biology & Medecine 1993, 14: 303-311<<Oxygen-Radical Absorbance Capacity assay for antioxydants>> and Benderitter, M., Vincent-Genid, L., Pouget, J. P., Voisin, P. Radiation Research 2003; 159 (4): 471-483 <<The cell membrane as a biosensor of oxydative stress induced by radiation exposure:multiparameter investigation>>, has been used for measuring the anti-oxidant capability of the compounds of the invention.
By convention, the ORAC antioxidant activity of any molecule is measured in comparison with a recognized reference which is an analog of vitamin E, the trolox (6-hydroxy-2,5,7,8-tetramethylchroman-2-carboxylic acid), the anti-oxidant capability of 1 μM (micro mole) of trolox corresponding to 1 ORAC unit.
The ORAC values are commonly reported in μmol TE/g (in micromole of Trolox Equivalent per gram of product to be tested).
Given these definitions, the trolox has an ORAC index of about 3995 units.
The ORAC values of the compounds 26 and 34 have been measured (average of 3 measurements).

## COc1cc(/C=C/C(=O)OCCc2ccc(OC(C)=O)cc2)cc(OC)c1OC(C)=O [Compound 1, 4-acetoxy-3,5-dimethoxy cinnamate of 2-(4-acetoxyphenyl)-ethyl]
other
  melting point: 132 °C

## CCCCCCCCCCCCCCCCOC(=O)/C=C/c1cc(OC)c(OC(C)=O)c(OC)c1 [Compound 4, 4-acetoxy-3,5-dimethoxy cinnamate of n-hexadecyl]
other
  melting point: 82 °C

## COc1cc(COC(=O)/C=C/c2cc(OC)c(OC(C)=O)c(OC)c2)cc(OC)c1OC [Compound 5]
[1]; after 9 days of treatment
  Glycerol % in comparison with caffeine: 82%
  slimming activity in comparison with caffeine: enhanced slimming activity
[1]; glycerol released in culture medium after 9 days, 100 μl of 2% product in DMSO in 2 ml medium on J0, J2, J3, J5, J7, 3 explants
  Glycerol Average: 0.083 mg/mL
[2]; 10 ng/ml
  Progerin % DMSO: 27.6%
  Progerin Average: 306.4* ng/mg of protein
  Progerin, individual values: 284.0 ng/mg of protein and 243.7 ng/mg of protein and 391.4 ng/mg of protein
  Progerin Difference (%): −72.4%
[2]; 100 ng/ml
  Progerin % DMSO: 29.1%
  Progerin Average: 322.9* ng/mg of protein
  Progerin, individual values: 206.0 ng/mg of protein and 364.1 ng/mg of protein and 398.6 ng/mg of protein
  Progerin Difference (%): −70.9%
[2]; 500 ng/ml
  Progerin % DMSO: 77.9%
  Progerin Average: 865.0 ng/mg of protein
  Progerin, individual values: 916.2 ng/mg of protein and 1021.7 ng/mg of protein and 657.0 ng/mg of protein
  Progerin Difference (%): −22.1%
[2]; under the retained experimental conditions
  neo synthesis of progerin: significantly decrease
[3]; 10 ng/ml
  Procollagen % DMSO: 75.7%
  Procollagen Average: 39.7* pg/mg of protein
  Procollagen, individual values: 45.3 pg/mg of protein and 37.0 pg/mg of protein and 36.8 pg/mg of protein
  Procollagen Difference (%): −24.3%
[3]; 100 ng/ml
  Procollagen % DMSO: 96.3%
  Procollagen Average: 50.5 pg/mg of protein
  Procollagen, individual values: 53.0 pg/mg of protein and 52.3 pg/mg of protein and 46.3 pg/mg of protein
  Procollagen Difference (%): −3.7%
[3]; 500 ng/ml
  Procollagen % DMSO: 126.9%
  Procollagen Average: 66.6* pg/mg of protein
  Procollagen, individual values: 66.1 pg/mg of protein and 62.3 pg/mg of protein and 71.4 pg/mg of protein
  Procollagen Difference (%): 26.9%
Normal human melanocytes
  synthesis of melanin in the melanocytes: significantly decrease
Normal human melanocytes; 10 ng/ml on fibroblasts 48 hours
  Melanin/Proteins, individual values: 14.2 µg/mg and 11.7 µg/mg and 13.7 µg/mg
Normal human melanocytes; 10 ng/ml
  Melanin/Proteins % DMSO: 83.0%
  Melanin/Proteins Average: 14.3* μg/mg
  Melanin/Proteins Difference (%): −17.0%
Normal human melanocytes; 50 ng/ml on fibroblasts 48 hours
  Melanin/Proteins, individual values: 14.3 μg/mg and 14.7 μg/mg (2×)
Normal human melanocytes; 50 ng/ml
  Melanin/Proteins % DMSO: 83.6%
  Melanin/Proteins Average: 14.4* μg/mg
  Melanin/Proteins Difference (%): −16.4%
Normal human melanocytes; 100 ng/ml on fibroblasts 48 hours
  Melanin/Proteins, individual values: 15.8 µg/mg and 16.7 µg/mg and 16.0 µg/mg
Normal human melanocytes; 100 ng/ml
  Melanin/Proteins % DMSO: 93.7%
  Melanin/Proteins Average: 16.2 µg/mg
  Melanin/Proteins Difference (%): −6.3%

## COc1cc(/C=C/C(=O)Oc2cc(C)ccc2C(C)C)cc(OC)c1OC(C)=O [Compound 8, 4-acetoxy-3,5-dimethoxy cinnamate of 2-isopropyl-5-methyl phenyl]
other
  melting point: 143 °C

## COc1cc(/C=C/C(=O)Nc2ccccc2)cc(OC)c1OC(C)=O [Compound 19, 4-acetoxy-3,5-dimethoxy-N-(phenyl)-cinnamamide]
other
  melting point: 100 °C

## COc1cc(/C=C/C(=O)NCCCc2ccccc2)cc(OC)c1OC(C)=O [Compound 26, 4-acetoxy-3,5-dimethoxy-N-(3-phenylpropyl)-cinnamamide]
[4]
  antioxidant activity in comparison with trolox: slightly higher
other
  melting point: 132 °C

## COc1cc(/C=C/C(=O)NC2CC2)cc(OC)c1OC(C)=O [Compound 34]
[4]
  antioxidant activity in comparison with trolox: 5 times

## COc1cc(/C=C/C(=O)NCC(O)c2ccc(O)cc2)cc(OC)c1OC(C)=O (stereo not drawn) [Compound 39]
[4]; average of 3 measurements
  ORAC Antioxidant activity: 20968 ± 992 μmol TE/g

## Cc1c(C)c2c(c(C)c1O)CCC(C)(C(=O)O)O2 (stereo not drawn) [Trolox, 6-hydroxy-2,5,7,8-tetramethylchroman-2-carboxylic acid, reference compound]
[4]; reference, given the definitions
  ORAC index: about 3995 units
[4]; reference, value follows from the definition of the ORAC unit
  ORAC Antioxidant activity: 3995 μmol TE/g
